Test results taken from PMC11247081 (Signal Transduction and Targeted Therapy, 2024).

Experiments:
HER2-mutant NSCLC = details: pretreated patients with HER2-mutant NSCLC; cited from earlier work
[1] = pre-clinical studies; cited from earlier work
[2] = pre-clinical studies; cited from earlier work; remark: listed apart in the source
[3] = Pharmacokinetics of SHR-A1811, total antibody and free payload (non-compartmental); details: for Tmax: median (range)
[4] = multiple dosing (cycle 3), SHR-A1811 […] (n=3), PK data available for 1 patient
[5] = single dosing (cycle 1), SHR-A1811 8.0 mg/kg (n=3), mean (SD)

Compound: Trastuzumab emtansine [T-DM1]
- ORR (HER2-mutant NSCLC): 44%
- median DoR (HER2-mutant NSCLC): 4 months

Compound: CC[C@@]1(O)C(=O)OCc2c1cc1n(c2=O)Cc2c-1nc1cc(F)c(C)c3c1c2[C@@H](NC(=O)[C@H](O)C1CC1)CC3 [Free payload]
- membrane permeability compared with the payload of T-DXd [1]: superior
- cytotoxicity compared with the payload of T-DXd [2]: superior
- exposure (Cmax, AUC0−21d, AUC0−t, and AUC0−∞) versus dose ([3]; after single dosing, over the tested dose range): increased in a dose-dependent manner
- plasma exposure compared with ADC and TAb ([3]; all studied dose levels): much lower
- t1/2 [3, 4]: 5.6 (NC) day
- Tmax [3, 4]: 0.105 (0.1050-0.1050) day
- t1/2 ([3]; multiple dosing (cycle 3), SHR-A1811 […] (n=3), mean (SD)): 5.7 (0.5) day
- Tmax ([3]; multiple dosing (cycle 3), SHR-A1811 […] (n=3)): 0.124 (0.1150-0.1320) day
- t1/2 ([3]; multiple dosing (cycle 3), SHR-A1811 […] (n=10), mean (SD)): 6.5 (1.6) day
- Tmax ([3]; multiple dosing (cycle 3), SHR-A1811 […] (n=10)): 0.117 (0.1050-0.1190) day
- t1/2 ([3]; multiple dosing (cycle 3), SHR-A1811 […] (n=41), mean (SD)): 6.3 (1.0) day
- Tmax ([3]; multiple dosing (cycle 3), SHR-A1811 […] (n=41)): 0.104 (0.0806-7.0200) day
- AUC0-21d [3, 5]: 23.5 (7.4) day·ng/mL
- AUC0-t [3, 5]: 22.8 (6.2) day·ng/mL
- AUC0-∞ [3, 5]: 25.2 (7.6) day·ng/mL
- Cmax [3, 5]: 3.9 (1.0) ng/mL
- MRT [3, 5]: 7.6 (1.8) day
- t1/2 [3, 5]: 5.5 (1.1) day
- Tmax ([3]; single dosing (cycle 1), SHR-A1811 8.0 mg/kg (n=3)): 1.0600 (0.3960-1.0600) day
- t1/2 ([3]; single dosing (cycle 1), SHR-A1811 […] (n=10), mean (SD)): 5.9 (1.1) day
- Tmax ([3]; single dosing (cycle 1), SHR-A1811 […] (n=10)): 0.3990 (0.1470-1.0200) day
- t1/2 ([3]; single dosing (cycle 1), SHR-A1811 […] (n=41), mean (SD)): 5.2 (0.6) day
- Tmax ([3]; single dosing (cycle 1), SHR-A1811 […] (n=41)): 0.3960 (0.0236-1.0600) day
